Values quoted from earlier work as cited in US6432400B1, “Specific pancreatic lipase inhibitors and their applications” (Laboratoire Laphal (Laboratoire de Pharmacologie Appliquee), priority 1997, dated 2002).

Experiments:
pancreatic lipase = target: T1, pancreatic lipase (Homo sapiens, UniProt P16233); settings: 1 mol of THL/mol of enzyme
T1 sequence (P16233 17-465): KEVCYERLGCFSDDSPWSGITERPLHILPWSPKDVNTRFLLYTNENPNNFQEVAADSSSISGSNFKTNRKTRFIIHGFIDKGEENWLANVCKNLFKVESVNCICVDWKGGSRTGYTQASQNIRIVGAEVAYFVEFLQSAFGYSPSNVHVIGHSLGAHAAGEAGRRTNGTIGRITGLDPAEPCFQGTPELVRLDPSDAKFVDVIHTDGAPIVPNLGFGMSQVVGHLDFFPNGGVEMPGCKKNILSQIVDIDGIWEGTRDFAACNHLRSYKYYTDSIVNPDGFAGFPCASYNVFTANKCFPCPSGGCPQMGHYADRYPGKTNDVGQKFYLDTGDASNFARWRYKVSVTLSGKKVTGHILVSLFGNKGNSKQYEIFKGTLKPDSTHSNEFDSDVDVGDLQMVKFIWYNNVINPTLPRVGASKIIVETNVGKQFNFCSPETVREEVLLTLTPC

[1] = system: carboxylester lipase, gastric lipase and lipase stimulated by the bile salts in human milk; settings: inhibits carboxylester lipase, gastric lipase and bile-salt-stimulated lipase of human milk

CCCCCCCCCCC[C@@H](C[C@@H]1OC(=O)[C@H]1CCCCCC)OC(=O)[C@H](CC(C)C)NC=O [THL, tetrahydrolipstatin]
inhibition of the lipolytic activity (pancreatic lipase): complete inhibition
specificity for pancreatic lipase [1]: not specific for pancreatic lipase
